Test results taken from patent publication US4900727A, “4H-1-benzopyran-4-one compounds which have anti-inflamatory or immunodulating action” (Hoechst Aktiengesellschaft, priority 1986, dated 1990).
Where a name gives a salt, the structure may show the parent alone. Read-outs that look alike come from different tables or passages of the source.

Assays:
[1] = system: carrageenin-induced paw edema in rats; experiment: Systemic anti-inflammatory action on carrageenin-induced paw edema in rats; type: in vivo, male Charles Foster rats; conditions: decrease in paw volume, 3 and 6 hours after carrageenin, from dose/response curve
Experimental: Male Charles Foster rats (120-150 g) were fasted for 18 hours, with water ad libitum. The test compound dissolved in distilled water was administered orally. The control group received distilled water. 0/05 ml of 0.5% carrageenin suspension was injected subcutaneously into the plantar region of the left hind paw. Using a Maclab differential volume meter, the paw volume was determined before the carrageenin injection and 3 and 6 hours after the injection. The percentage decrease in paw volume was calculated by the following equation: [formula] The ED50 value was calculated from the dose/response curve. Six animals were used for each group. The results with representative compounds according to the invention and their salts are listed in Table 4, the substituents relating to the following formula Ia: [drawing 11]

[2] = system: reverse passive Arthus reaction (RPA) in rats; experiment: Reverse passive Arthus reaction (RPA) in rats; type: in vivo, Charles Foster rats of both sexes; conditions: one hour before RPA, edema vs untreated control; for % inhibition: hydrochloride
Experimental: Charles Foster rats of both sexes, weighing 150-180 g, were sorted into groups of six animals each. 24 hours before the initiation of the RPA, the rats were shaved from the mid-dorsal region and fasted overnight. The test compounds were administered orally one hour before inducing the Arthus reaction. The RPA reaction was induced by intradermal injection of 0.1 ml of appropriately diluted rabbit anti-BSA serum. Immediately after the intradermal exposure, each rat received 0.5 ml of 0.4% bovine serum albumin intraveneously. Four hours after the intradermal challenge, each group of animals was killed by cervical dislocation. The full thickness of the skin was removed from the back of each animal, and a 12 mm diameter disk was punched out with a metal punch from the site of the antiserum injection. The wet weight of each skin site was determined as soon as possible. The edema caused by the RPA was measured as the difference (expressed in mg) between the wet weight of the site injected with antibody and that injected with normal rabbit serum. The results are expressed as the percentage inhibition or potentiation of the edema by the compound as compared with the edema induced in the untreated control animals.

[3] = Rattus norvegicus, po, read-out: ED50
[4] = Rattus norvegicus, po, 4 h, dose 1.25 mg/kg p.o.
[5] = Rattus norvegicus, po, 4 h, dose 2.5 mg/kg p.o.
[6] = Rattus norvegicus, po, 4 h, dose 5.0 mg/kg p.o.
[7] = Rattus norvegicus, po, 4 h, dose 10.0 mg/kg p.o.
[8] = Rattus norvegicus, po, 4 h, dose 20.0 mg/kg p.o.

Compound	ED50 [1, 3] [mg/kg]	inhibition in vivo at 1.25 mg/kg [2, 4] [%]	inhibition in vivo at 2.5 mg/kg [2, 5] [%]	inhibition in vivo at 5 mg/kg [2, 6] [%]	inhibition in vivo at 10 mg/kg [2, 7] [%]	inhibition in vivo at 20 mg/kg [2, 8] [%]	other results
CCc1cc(=O)c2c(O)cc(O)c(C3CCN(C)CC3O)c2o1 (mixture of isomers) [(±) C2 H5 H CH3 HCl.1.5 H2 O, cis-5,7-Dihydroxy-2-ethyl-8-[4'-(3'-hydroxy-1'-methyl)-piperidinyl]-4H-1-benzopyran-4-one hydrochloride]	10.5	16	34.3	41.6	43.6	77.1	
CCCc1cc(=O)c2c(O)cc(O)c(C3CCN(C)CC3O)c2o1 (mixture of isomers) [(±) n-C3 H7 H CH3 HCl.H2 O, cis-5,7-Dihydroxy-2-n-propyl-8-[4'-(3'-hydroxy-1'-methyl)-piperidinyl]-4H-1-benzopyran-4-one hydrochloride]	6.8	26	32	44	55	65	
CN1CC[C@H](c2c(O)cc(O)c3c(=O)cc(-c4ccc(N)cc4)oc23)[C@H](O)C1 (racemic) [(±) 4-Aminophenyl H H 2HCl, 2 H2 O, cis-(±)-2-(4-aminophenyl)-5,7-dihydroxy-8-[4'-(3'-hydroxy-1'-methyl)-piperidinyl]-4H-1-benzopyran-4-one]							ED50 ([1]; p.o.): 7.4 mg/kg
CN1CC[C@H](c2c(O)cc(O)c3c(=O)cc(-c4ccc(Cl)cc4)oc23)[C@H](O)C1 (racemic) [(±) 4-chlorophenyl H H HCl, 1.5 H2 O, cis-(±)-2-(4-chlorophenyl)-5,7-dihydroxy-8-[4'-(3'-hydroxy-1'-methyl)-piperidinyl]-4H-1-benzopyran-4-one]							ED50 ([1]; p.o.): 7.0 mg/kg
CN1CC[C@H](c2c(O)cc(O)c3c(=O)cc(-c4ccccn4)oc23)[C@H](O)C1 (relative stereo) [(±) 2-Pyridyl H CH3 HCl.1.5 H2 O, cis-(±)-5,7-dihydroxy-2-(2-pyridyl)-8-[4'-(3'-hydroxy-1'-methyl)-piperidinyl]-4H-1-benzopyran-4-one]	5.7	0	12	43	90	90	
Cc1cc(=O)c2c(O)cc(O)c([C@H]3CCN(C)C[C@H]3O)c2o1 (relative stereo) [(±) CH3 H CH3 HCl, cis-5,7-Dihydroxy-2-methyl-8-[4'-(3'-hydroxy-1'-methyl)-piperidinyl]-4H-1-benzopyran-4-one hydrochloride]	12.5	28.8	31.8	29.8	35.8	39.2	
CN1CC[C@H](c2c(O)cc(O)c3c(=O)cc(-c4ccccc4)oc23)[C@H](O)C1 (relative stereo) [(±) Phenyl H CH3 HCl.2H2 O, cis-(±)-5,7-dihydroxy-2-phenyl-8-[4'-(3'-hydroxy-1'-methyl)-piperidinyl]-4H-1-benzopyran-4-one]	5.7	57.5	55.6	68.1	90.6	95.7	
CN1CC[C@H](c2c(O)cc(O)c3c(=O)cc(-c4ccccc4Cl)oc23)[C@H](O)C1 (relative stereo) [(±) o-Chlorophenyl H CH3 HCl.H2 O, cis-(±)-2-(2-chlorophenyl)-5,7-dihydroxy-8-[4'-3'-hydroxy-1'-methyl)-piperidinyl]-4H-benzopyran-4-one]	2.7						inhibition in vivo at 1 mg/kg ([2]; Rattus norvegicus, po, 4 h, dose 1.0 mg/kg p.o.): 37%; inhibition in vivo at 2 mg/kg ([2]; Rattus norvegicus, po, 4 h, dose 2.0 mg/kg p.o.): 60%; inhibition in vivo at 4 mg/kg ([2]; Rattus norvegicus, po, 4 h, dose 4.0 mg/kg p.o.): 80%
CN1CC[C@H](c2c(O)cc(O)c3c(=O)cc(-c4ccccc4F)oc23)[C@H](O)C1 (relative stereo) [(±) o-Fluorophenyl H CH3 HCl.2H2 O, cis-(±)-5,7-dihydroxyl-2-(2-fluorophenyl)-8-[4'-(3'-hydroxy-1'-methyl)-piperidinyl]-4H-1-benzopyran-4-one]	7.6	0	11.5	52.7			
CN1CC[C@H](c2c(O)cc(O)c3c(=O)cc(-c4ccc(F)cc4)oc23)[C@H](O)C1 (relative stereo) [(±) p-Fluorophenyl H CH3 HCl.H2 O, cis-(±)-5,7-dihydroxy-2-(4-fluorophenyl)-8-[4'-(3'-hydroxy-1'-methyl)-piperidinyl]-4H-1-benzopyran-4-one]	7.4	24.4	37.4	61.5	90	86.2	
CN1CC[C@H](c2c(O)cc(O)c3c(=O)cc(-c4ccc(Cl)cc4Cl)oc23)[C@H](O)C1 (relative stereo) [cis-(±)-2-(2,4-dichlorophenyl)-5,7-dihydroxy-8-[4'-(3'-hydroxy-1'-methyl)-piperidinyl]-4H-1-benzopyran-4-one]	5.7	0	41.7	57.2	49.5	76.1	
Cc1cc(=O)c2c(O)cc(O)c([C@H]3CCN(C)C[C@H]3O)c2o1 (single isomer, unassigned) [(+) CH3 H CH3 HCl, (+)-cis-5,7-Dihydroxy-2-methyl-8-[4'-(3'-hydroxy-1'-methyl)-piperidinyl]-4H-1-benzopyran-4-one hydrochloride]	9.4	40.5	48.8	57.1	50.4		% inhibition ([2]; dose 20.0 mg/kg p.o., 20 mg/kg): 43.24%
CN1CC[C@H](c2c(O)cc(O)c3c(=O)cc(-c4ccccc4Cl)oc23)[C@H](O)C1 (single isomer, unassigned) [(-) 2-Chlorophenyl H CH3 HCl.1,5 H2 O, cis-(-)-2-(2-chlorophenyl)-5,7-dihydroxy-8-[4'-(3'-hydroxy-1'-methyl)-piperidinyl]-4H-1-benzopyran-4-one]	2.4	34	48.8	70	98.8		
Cc1cc(=O)c2c(O)cc(O)c([C@H]3CCN(C)C[C@H]3O)c2o1 (single isomer, unassigned) [(-) CH3 H CH3 HCl, (-)-cis-5,7-Dihydroxy-2-methyl-8-[4'-(3'-hydroxy-1'-methyl)-piperidinyl]-4H-1-benzopyran-4-one hydrochloride]							ED50 ([1]; p.o., hydrochloride): 9.0 mg/kg; % inhibition ([2]; dose 1.25 mg/kg p.o., 1.25 mg/kg): 40.31%; % inhibition ([2]; dose 2.5 mg/kg p.o., 2.5 mg/kg): 39.11%; % inhibition ([2]; dose 5.0 mg/kg p.o., 5 mg/kg): 40.13%; % inhibition ([2]; dose 10.0 mg/kg p.o., 10 mg/kg): 45.17%; % inhibition ([2]; dose 20.0 mg/kg p.o., 20 mg/kg): 64.73%
CN1CC[C@H](c2c(O)cc(O)c3c(=O)cc(-c4ccccc4)oc23)[C@H](O)C1 (single isomer, unassigned) [(-) Phenyl H CH3 HCl.1/2H2 O, cis-(-)-5,7-dihydroxy-2-phenyl-8-[4'-(3'-hydroxy-1'-methyl)-piperidinyl]-4H-1-benzopyran-4-one]	1.3		26.2	64.5	92.2		
